Measured values from patent US20250388605A1, “HETEROBIFUNCTIONAL COMPOUNDS AND METHODS OF TREATING DISEASE” (Halda Therapeutics OpCo, Inc., priority 2022, published 2025).

What follows are compounds tested against T1, androgen receptor (Homo sapiens, UniProt P10275) (assay: Assay for binding affinity to androgen receptor ([3H]methyltrienolone radioligand competition, cell cytosol)). Conditions: binding to the androgen receptor, 1 nM [3H]methyltrienolone, 24 hr at 4° C.
T1 construct: host or cells: unnamed cells, cytosolic fraction
T1 sequence (P10275 1-920): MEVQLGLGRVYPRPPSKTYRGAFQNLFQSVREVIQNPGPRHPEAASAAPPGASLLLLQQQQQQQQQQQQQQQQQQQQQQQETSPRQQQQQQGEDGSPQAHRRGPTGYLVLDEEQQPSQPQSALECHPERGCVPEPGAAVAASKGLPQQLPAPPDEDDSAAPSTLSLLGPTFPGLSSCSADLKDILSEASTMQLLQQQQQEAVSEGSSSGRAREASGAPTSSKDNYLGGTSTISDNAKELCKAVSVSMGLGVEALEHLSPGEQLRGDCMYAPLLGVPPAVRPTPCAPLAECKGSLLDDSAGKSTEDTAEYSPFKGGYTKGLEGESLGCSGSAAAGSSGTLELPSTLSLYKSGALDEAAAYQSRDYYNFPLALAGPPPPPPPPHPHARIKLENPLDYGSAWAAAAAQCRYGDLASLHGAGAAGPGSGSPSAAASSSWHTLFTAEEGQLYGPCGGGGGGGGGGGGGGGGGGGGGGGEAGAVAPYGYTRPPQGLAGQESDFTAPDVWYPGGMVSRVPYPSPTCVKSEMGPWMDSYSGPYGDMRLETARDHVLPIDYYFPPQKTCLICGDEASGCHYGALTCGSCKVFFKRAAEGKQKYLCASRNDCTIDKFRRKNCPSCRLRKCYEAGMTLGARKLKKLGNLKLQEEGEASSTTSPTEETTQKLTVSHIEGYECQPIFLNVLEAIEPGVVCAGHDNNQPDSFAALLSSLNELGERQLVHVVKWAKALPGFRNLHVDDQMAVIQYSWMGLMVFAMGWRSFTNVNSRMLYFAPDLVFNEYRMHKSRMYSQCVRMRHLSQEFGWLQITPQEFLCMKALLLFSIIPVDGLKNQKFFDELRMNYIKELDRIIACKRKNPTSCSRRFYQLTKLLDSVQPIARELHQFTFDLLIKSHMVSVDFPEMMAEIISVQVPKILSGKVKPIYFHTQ
Protocol: Fractions of cell cytosol ([…]) were incubated for 24 hr at 4° C. with 1 nM [^3H]methyltrienolone in the absence or presence of the test compound in a buffer containing 25 mM Hepes-Tris (pH 7.4), 1 mM EDTA, 10 mM Na2MoO4, 2 mM DTT, 5 μM triamcinolone acetonide, and 10% glycerol. Nonspecific binding was determined in the presence of […] testosterone. Following incubation, the samples were filtered rapidly under vacuum through glass fiber filters (GF/B, Packard) presoaked with 0.3% PEI and rinsed several times with ice-cold 50 mM Tris-HCl using a 96-sample cell harvester (Unifilter, Packard). The filters were dried then counted for radioactivity in a scintillation counter (Topcount, Packard) using a scintillation cocktail (Microscint 0, Packard). The results are expressed as a percent inhibition of the control radioligand specific binding. The standard reference compound is testosterone, which is tested in each experiment at several concentrations to obtain a competition curve from which its IC50 is calculated.

Which Ki does the source give for CCS(=O)(=O)Nc1ccc(Oc2cccc(CCN3CC4CN(c5ncc(C(=O)N[C@H]6C(C)(C)[C@H](Oc7ccc(C#N)c(Cl)c7)C6(C)C)cn5)CC4C3)c2)c(-c2cn(C)c(=O)c3[nH]ccc23)c1 (some centres unmarked) [Compound I-119] here?
Its Ki is < 50 nM.

Which Ki does the source give for Cn1cc(-c2cc(N)ccc2Oc2cccc(OCCC3CCN(c4ncc(C(=O)N[C@H]5C(C)(C)[C@H](Oc6ccc(C#N)c(Cl)c6)C5(C)C)cn4)CC3)c2)c2cc[nH]c2c1=O [Compound I-101] here?
The Ki was < 50 nM.

For CCS(=O)(=O)c1ccc(OC(CCCCN2CCN(c3ncc(C(=O)NC4C(C)(C)C(Oc5ccc(C#N)c(Cl)c5)C4(C)C)cn3)CC2)C2CC2)c(-c2cn(C)c(=O)c3[nH]ccc23)c1 (centres unmarked) [Compound I-223, N-[3-(3-chloro-4-cyano-phenoxy)-2,2,4,4-tetramethyl-cyclobutyl]-2-[4-[5-cyclopropyl-5-[4-ethylsulfonyl-2-(6-methyl-7-oxo-1H-pyrrolo[2,3-c]pyridin-4-yl)phenoxy]pentyl]piperazin-1-yl]pyrimidine-5-carboxamide], which Ki is on record?
Its Ki is < 50 nM.

CCS(=O)(=O)Nc1ccc(Oc2cccc(NCCOC3CCN(c4ncc(C(=O)N[C@H]5C(C)(C)[C@H](Oc6ccc(C#N)c(Cl)c6)C5(C)C)cn4)CC3)c2)c(-c2cn(C)c(=O)c3[nH]ccc23)c1 [Compound I-84] was tested. Which Ki did it give?
The Ki was < 50 nM.

Which Ki does the source give for Cn1cc(-c2cc(C(C)(C)O)ccc2Oc2ccc(N3CC4(C3)CN(c3ncc(C(=O)N[C@H]5C(C)(C)[C@H](Oc6ccc(C#N)c(Cl)c6)C5(C)C)cn3)CCO4)cc2)c2cc[nH]c2c1=O [Compound I-212] here?
Its Ki is < 50 nM.

How did the Ki turn out when Cn1cc(-c2cc(C(C)(C)O)ccc2Oc2cccc(OCCN3CCN(c4ncc(C(=O)N[C@H]5C(C)(C)[C@H](Oc6ccc(C#N)c(Cl)c6)C5(C)C)cn4)CC3)c2F)c2cc[nH]c2c1=O [Compound I-99] was run?
The Ki was < 50 nM.

How did the Ki turn out when CCS(=O)(=O)N(C)c1ccc(Oc2cccc(N3CCN(C4CN(c5ncc(C(=O)N[C@H]6C(C)(C)[C@H](Oc7ccc(C#N)c(Cl)c7)C6(C)C)cn5)C4)CC3)c2)c(-c2cn(C)c(=O)c3[nH]ccc23)c1 [Compound I-118] was run?
Its Ki is < 50 nM.

How did the Ki turn out when CCS(=O)(=O)Nc1ccc(Oc2cccc(OCCOC3CCN(c4cnc(C(=O)N[C@H]5C(C)(C)[C@H](Oc6ccc(C#N)c(Cl)c6)C5(C)C)cn4)CC3)c2)c(-c2cn(C)c(=O)c3[nH]ccc23)c1 [Compound I-71, N-((1r, 3r)-3-(3-chloro-4-cyanophenoxy)-2,2,4,4-tetramethylcyclobutyl)-5-(4-(2-(3-(4-(ethylsulfonamido)-2-(6-methyl-7-oxo-6,7-dihydro-1H-pyrrolo[2,3-c]pyridin-4-yl)phenoxy)phenoxy)ethoxy)piperidin-1-yl)pyrazine-2-carboxamide] was run?
Its Ki is 500 to 2500 nM.

With CCS(=O)(=O)Nc1ccc(Oc2cccc(OCCOCCOCCOCCOCCN(C)c3ncc(C(=O)N[C@H]4C(C)(C)[C@H](Oc5ccc(C#N)c(Cl)c5)C4(C)C)cn3)c2)c(-c2cn(C)c(=O)c3[nH]ccc23)c1 [Compound I-3] as the compound, how does the Ki read?
The Ki was < 50 nM.

Cn1cc(-c2ccccc2Oc2cccc(OCCN3CCN(c4ncc(C(=O)N[C@H]5C(C)(C)[C@H](Oc6ccc(C#N)c(Cl)c6)C5(C)C)cn4)CC3)c2)c2cc[nH]c2c1=O [Compound I-98] was tested. Which Ki did it give?
Its Ki is < 50 nM.

For CCS(=O)(=O)Nc1ccc(Oc2ccc(OCC3CCN(c4ncc(C(=O)N[C@H]5C(C)(C)[C@H](Oc6ccc(C#N)c(Cl)c6)C5(C)C)cn4)CC3)cc2)c(-c2cn(C)c(=O)c3[nH]ccc23)c1 [Compound I-138], which Ki is on record?
Its Ki is < 50 nM.

Which Ki does the source give for CCS(=O)(=O)Nc1ccc(Oc2cccc(N3CCN(C4CN(c5ncc(C(=O)N[C@H]6C(C)(C)[C@H](Oc7ccc(C#N)c(Cl)c7)C6(C)C)cn5)C4)CC3)c2)c(-c2cn(C)c(=O)c3[nH]ccc23)c1 [Compound I-126] here?
The Ki was < 50 nM.

With CCS(=O)(=O)Nc1ccc(Oc2cccc(OCCOC3CCN(c4ncc(C(=O)N[C@H]5C(C)(C)[C@H](Oc6ccc(C#N)c(Cl)c6)C5(C)C)cn4)CC3)n2)c(-c2cn(C)c(=O)c3[nH]ccc23)c1 [Compound I-47, N-((1r, 3r)-3-(3-chloro-4-cyanophenoxy)-2,2,4,4-tetra-methylcyclobutyl)-2-(4-(2-((6-(4-(ethylsulfonamido)-2-(6-methyl-7-oxo-6,7-dihydro-1H-pyrrolo[2,3-c]pyridin-4-yl)phenoxy)pyridin-2-yl)oxy)ethoxy)piperidin-1-yl)pyrimidine-5-carboxamide] as the compound, how does the Ki read?
Its Ki is < 50 nM.

CCS(=O)(=O)Nc1ccc(Oc2cccc(OCCOCCOCCOCCOCCOC3CCN(c4ncc(C(=O)N[C@H]5C(C)(C)[C@H](Oc6ccc(C#N)c(Cl)c6)C5(C)C)cn4)CC3)c2)c(-c2cn(C)c(=O)c3[nH]ccc23)c1 [Compound I-8] was tested. Which Ki did it give?
Its Ki is < 50 nM.

Which Ki does the source give for CCS(=O)(=O)Nc1ccc(Oc2cccc(N3CC(CC4CN(c5ncc(C(=O)N[C@H]6C(C)(C)[C@H](Oc7ccc(C#N)c(Cl)c7)C6(C)C)cn5)C4)C3)c2)c(-c2cn(C)c(=O)c3[nH]ccc23)c1 [Compound I-158] here?
The Ki was < 50 nM.

How did the Ki turn out when CCS(=O)(=O)Nc1ccc(Oc2cccc(OCCOC3CCN(c4ccc(C(=O)N[C@H]5C(C)(C)[C@H](Oc6ccc(C#N)c(Cl)c6)C5(C)C)cn4)CC3)c2)c(-c2cn(C)c(=O)c3[nH]ccc23)c1 [Compound I-70, N-((1r, 3r)-3-(3-chloro-4-cyanophenoxy)-2,2,4,4-tetramethylcyclobutyl)-6-(4-(2-(3-(4-(ethylsulfonamido)-2-(6-methyl-7-oxo-6,7-dihydro-1H-pyrrolo[2,3-c]pyridin-4-yl)phenoxy)phenoxy)ethoxy)piperidin-1-yl)nicotinamide] was run?
Its Ki is < 50 nM.

With CCS(=O)(=O)c1ccc(Oc2cccc(OCCN3CCN(c4ncc5c(n4)CN([C@H]4C(C)(C)[C@H](Oc6ccc(C#N)c(Cl)c6)C4(C)C)C5=O)CC3)c2F)c(-c2cn(C)c(=O)c3[nH]ccc23)c1 [Compound I-217] as the compound, how does the Ki read?
Its Ki is < 50 nM.

With Cn1cc(-c2cc(N)ccc2Oc2cccc(N3CC(N4CCN(c5ncc(C(=O)N[C@H]6C(C)(C)[C@H](Oc7ccc(C#N)c(Cl)c7)C6(C)C)cn5)CC4)C3)c2F)c2cc[nH]c2c1=O [Compound I-93] as the compound, how does the Ki read?
Its Ki is < 50 nM.

With CCS(=O)(=O)Nc1ccc(Oc2cccc(OCCN(C)c3ncc(C(=O)N[C@H]4C(C)(C)[C@H](Oc5ccc(C#N)c(Cl)c5)C4(C)C)cn3)c2)c(-c2cn(C)c(=O)c3[nH]ccc23)c1 [Compound I-1, N-((1r, 3r)-3-(3-chloro-4-cyanophenoxy)-2,2,4,4-tetramethylcyclobutyl)-2-((2-(3-(4-(ethylsulfonamido)-2-(6-methyl-7-oxo-6,7-dihydro-1H-pyrrolo[2,3-c]pyridin-4-yl)phenoxy)phenoxy)ethyl)(methyl)amino)pyrimidine-5-carboxamide] as the compound, how does the Ki read?
The Ki was < 50 nM.

Which Ki does the source give for Cn1cc(-c2cc(C(C)(C)O)ccc2Oc2ccc(CCC3CCN(c4ncc(C(=O)N[C@H]5C(C)(C)[C@H](Oc6ccc(C#N)c(Cl)c6)C5(C)C)cn4)CC3)cc2)c2cc[nH]c2c1=O [Compound I-203] here?
Its Ki is 50 to 500 nM.

With Cn1cc(-c2cc(C(C)(C)O)ccc2Oc2cccc(N3CC4(CN(c5ncc(C(=O)N[C@H]6C(C)(C)[C@H](Oc7ccc(C#N)c(Cl)c7)C6(C)C)cn5)CCO4)C3)c2F)c2cc[nH]c2c1=O [Compound I-216] as the compound, how does the Ki read?
The Ki was < 50 nM.

CCS(=O)(=O)Nc1ccc(Oc2cccc(N3CC(N(C)C4CN(c5ncc(C(=O)N[C@H]6C(C)(C)[C@H](Oc7ccc(C#N)c(Cl)c7)C6(C)C)cn5)C4)C3)c2)c(-c2cn(C)c(=O)c3[nH]ccc23)c1 [Compound I-120] was tested. Which Ki did it give?
The Ki was < 50 nM.

For CCS(=O)(=O)Nc1ccc(Oc2cccc(OCCOC3CCN(c4ccc(C(=O)N[C@H]5C(C)(C)[C@H](Oc6ccc(C#N)c(Cl)c6)C5(C)C)nn4)CC3)c2)c(-c2cn(C)c(=O)c3[nH]ccc23)c1 [Compound I-11], which Ki is on record?
Its Ki is < 50 nM.
